{
  "source": "patent US11344601B2",
  "about": "“Tumor microenvironment-related target TAK1 and application thereof in inhibition of tumor” (Shanghai Institutes for Biological Sciences, Chinese …, priority 2017, dated 2022)",
  "system": "prostate cancer epithelial cell lines (BPH1, M12, PC3, DU145 and LNCaP)",
  "experiment": "Chemotherapy resistance of cancer cells conferred by extracellular fluid of damaged PSC27 stromal cells",
  "type": "cell-based, human",
  "conditions": "stromal cells treated with TAK1 inhibitor",
  "description": "c. Experimental Treatment In Vitro • 100 nM docetaxel (DTX), 100 nM paclitaxel (PTX), 200 nM vincristine (VCR), 50 μg/ml bleomycin (BLEO), 1 μM mitoxantrone (MIT), or 10 Gy ^137CS ionizating radiation (γ-radiation at 743 rad/min, RAD) was added to the culture medium when PSC27 cells grown to 80% (PSC27-Pre) to produce cell damage. After drug treatment for 6 hours, the cells were simply washed by PBS for 3 times and kept in the culture medium for 7 to 10 days, followed by subsequent experiments. 2. Plasmid Preparation and Lentiviral Transfection • Full-length human IKKα and Flag were cloned as a fusion protein between the restriction sites BamHI and XbaI in the expression vector pCR3.1. Full-length human mTOR and GST were cloned as a fusion protein between a pair of NotI restriction sites in the expression vector pcDNA3. Packaging cell line 293FT was used for cell transfection and lentivirus production. […] FV1000 laser scanning confocal microscopy (Olympus) was used to obtain cellular confocal fluorescence images to determine the extent of DNA damage. • Antibody anti-TAK1 used for histological IHC staining in clinical prostate, non-small cell lung cancer patients and breast cancer patients, was purchased from Proteintech, idib. […] Quantitative PCR for Measuring Gene Expression […]",
  "data": [
    {"smiles": "COc1cc(O)c2c(c1)/C=C/C[C@H](O)[C@H](O)C(=O)/C=C\\C[C@H](C)OC2=O", "note": "[5Z-7, 5z-7-oxozeaenol]", "values": [
      {"measurement": "resistance of cancer cells to docetaxel conferred by stromal cell extracellular fluid", "setting": "docetaxel", "result": "attenuate the acquired resistance"},
      {"measurement": "resistance of cancer cells to mitoxantrone conferred by stromal cell extracellular fluid", "setting": "mitoxantrone at IC50 concentration", "result": "significantly weakened"}
    ]}
  ]
}
